Measured values published in ChEMBL document CHEMBL6134867, “Design and Synthesis of FR-β Targeting Chimeric Molecules for Reprogramming Tumor-Associated Macrophages Using 6-Substituted Pyrrolo[2,3-d]pyrimidines as Targeting Ligands” (J Med Chem, 2025).
The source made the active and inactive calls. The rule behind the calls is not given here.

What was measured:
[1] = system: 4T1; experiment: Cytotoxicity against mouse 4T1 cells assessed as reduction in cell viability incubated for 24 hrs by CCK-8 assay; type: toxicity, cell-based; conditions: 4t1, 24 h
[2] = Toxicity against BALB/c mouse xenografted with mouse 4T1 cells assessed as pathological changes in kidney at 1 mg/kg, iv qd for 14 days by Hematoxylin-Eosin staining based analysis; type: organism-based; conditions: in vivo, 336 h, time 14 day
[3] = Toxicity against BALB/c mouse xenografted with mouse 4T1 cells assessed as pathological changes in liver at 1 mg/kg, iv qd for 14 days by Hematoxylin-Eosin staining based analysis; type: organism-based; conditions: in vivo, 336 h, time 14 day
[4] = Toxicity against BALB/c mouse xenografted with mouse 4T1 cells assessed as pathological changes in spleen at 1 mg/kg, iv qd for 14 days by Hematoxylin-Eosin staining based analysis; type: organism-based; conditions: in vivo, 336 h, time 14 day
[5] = system: Mus musculus; experiment: In vivo transition from anti-inflammatory to pro-inflammatory phenotypes in BALB/c mouse xenografted with mouse 4T1 cells assessed as upregulation in proportion of CD8+ cells at 1 mg/kg, iv qd for 14 days by flow cytometry; type: functional, organism-based; conditions: time 14.0 day
[6] = Toxicity against BALB/c mouse xenografted with mouse 4T1 cells assessed as pathological changes in heart at 1 mg/kg, iv qd for 14 days by Hematoxylin-Eosin staining based analysis; type: organism-based; conditions: in vivo, 336 h, time 14 day
[7] = system: HUVEC; experiment: Cytotoxicity against human HUVEC cells assessed as reduction in cell viability incubated for 24 hrs by CCK-8 assay; type: toxicity, cell-based
[8] = Toxicity against BALB/c mouse xenografted with mouse 4T1 cells assessed as effect on body weight at 1 mg/kg, iv qd for 14 days and measured every day; type: organism-based; conditions: in vivo, 336 h, time 14 day
[9] = Cytotoxicity against mouse BMDM cells assessed as reduction in cell viability incubated for 24 hrs by CCK-8 assay; type: toxicity, cell-based
[10] = system: Mus musculus; experiment: In vivo transition from anti-inflammatory to pro-inflammatory phenotypes in BALB/c mouse xenografted with mouse 4T1 cells assessed as CD4+ cells population at 1 mg/kg, iv qd for 14 days by flow cytometry; type: functional, organism-based; conditions: time 14.0 day
[11] = Prodrug release assessed as IMDQ formation in presence of 10 mM GSH and measured after 1 to 8 hrs by HPLC analysis; type: ADME; conditions: time 1-8 hrs
[12] = Toxicity against BALB/c mouse xenografted with mouse 4T1 cells assessed as heightened inflammatory response in lung at 1 mg/kg, iv qd for 14 days by Hematoxylin-Eosin staining based analysis; type: organism-based; conditions: in vivo, 336 h, time 14 day
[13] = system: 4T1; experiment: Antitumor activity against mouse 4T1 cells xenografted in BALB/c mouse assessed as inhibition of tumor growth at 1 mg/kg, iv qd for 14 days and measured every day by digital caliper analysis; type: functional, organism-based; conditions: time 14.0 day
[14] = Stability of the compound in PBS measured at 4 degC and for 15 days; type: physicochemical; conditions: time 15 day, read-out: Stability
[15] = Stability of the compound in mouse plasma at 5 uM and measured at 37 degC and for up to 12 hrs by HPLC analysis; type: ADME, cell-free; conditions: for remaining at 12 h, 5 µM: read-out: Stability
[16] = system: Mus musculus; experiment: In vivo transition from anti-inflammatory to pro-inflammatory phenotypes in BALB/c mouse xenografted with mouse 4T1 cells assessed as decrease in proportion of Ly6C+ and Ly6G+ cells within CD45+ population at 1 mg/kg, iv qd for 14 days by flow cytometry; type: functional, organism-based; conditions: time 14.0 day
[17] = system: BMDM; experiment: Induction of macrophage repolarization in FR-beta expressing IL-4 differentiated M2 phenotype mouse BMDM cells assessed as reprogramming to M1 phenotype by measuring downregulation of Arg1 expression at 10 nM incubated for 24 hrs by western blot analysis; type: functional, cell-based
[18] = system: BMDM; experiment: Induction of macrophage repolarization in FR-beta expressing IL-4 differentiated M2 phenotype mouse BMDM cells assessed as reprogramming to M1 phenotype by measuring upregulation of IL-6 level at 10 nM incubated for 24 hrs by ELISA; type: functional, cell-based
[19] = system: BMDM; experiment: Induction of macrophage repolarization in FR-beta expressing IL-4 differentiated M2 phenotype mouse BMDM cells assessed as reprogramming to M1 phenotype by measuring upregulation of IL-6 mRNA expression at 10 nM incubated for 24 hrs by RT-qPCR analysis; type: functional, cell-based
[20] = system: BMDM; experiment: Induction of macrophage repolarization in FR-beta expressing IL-4 differentiated M2 phenotype mouse BMDM cells assessed as reprogramming to M1 phenotype by measuring downregulation of Arg1 mRNA expression at 10 nM incubated for 24 hrs by RT-qPCR analysis; type: functional, cell-based
[21] = system: BMDM; experiment: Induction of macrophage repolarization in FR-beta expressing IL-4 differentiated M2 phenotype mouse BMDM cells assessed as reprogramming to M1 phenotype by measuring downregulation of CD206 mRNA expression at 10 nM incubated for 24 hrs by RT-qPCR analysis; type: functional, cell-based
[22] = system: BMDM; experiment: Induction of macrophage repolarization in FR-beta expressing IL-4 differentiated M2 phenotype mouse BMDM cells assessed as reprogramming to M1 phenotype by measuring TNF-alpha mRNA expression at 10 nM incubated for 24 hrs by RT-qPCR analysis; type: functional, cell-based
[23] = system: BMDM; experiment: Induction of macrophage repolarization in FR-beta expressing IL-4 differentiated M2 phenotype mouse BMDM cells assessed as reprogramming to M1 phenotype by measuring TNF-alpha level at 10 nM incubated for 24 hrs by ELISA; type: functional, cell-based
[24] = system: BMDM; experiment: Induction of macrophage repolarization in FR-beta expressing IL-4 differentiated M2 phenotype mouse BMDM cells assessed as reprogramming to M1 phenotype by measuring upregulation of iNOS expression at 10 nM incubated for 24 hrs by western blot analysis; type: functional, cell-based
[25] = system: BMDM; experiment: Induction of macrophage repolarization in FR-beta expressing IL-4 differentiated M2 phenotype mouse BMDM cells assessed as reprogramming to M1 phenotype by measuring upregulation of MyD88 expression at 10 nM incubated for 24 hrs by western blot analysis; type: functional, cell-based
[26] = system: BMDM; experiment: Induction of macrophage repolarization in FR-beta expressing IL-4 differentiated M2 phenotype mouse BMDM cells assessed as reprogramming to M1 phenotype by measuring downregulation of CD206 expression at 10 nM incubated for 24 hrs by western blot analysis; type: functional, cell-based
[27] = system: BMDM; experiment: Induction of macrophage repolarization in FR-beta expressing IL-4 differentiated M2 phenotype mouse BMDM cells assessed as reprogramming to M1 phenotype by measuring upregulation of iNOS mRNA expression at 10 nM incubated for 24 hrs by RT-qPCR analysis; type: functional, cell-based
[28] = system: BMDM; experiment: Induction of macrophage repolarization in FR-beta expressing IL-4 differentiated M2 phenotype mouse BMDM cells assessed as reprogramming to M1 phenotype by measuring downregulation of IL-10 level at 10 nM incubated for 24 hrs by ELISA; type: functional, cell-based
[29] = system: BMDM; experiment: Induction of macrophage repolarization in FR-beta expressing IL-4 differentiated M2 phenotype mouse BMDM cells assessed as reprogramming to M1 phenotype by measuring downregulation of IL-10 mRNA expression at 10 nM incubated for 24 hrs by RT-qPCR analysis; type: functional, cell-based
[30] = system: BMDM; experiment: Induction of macrophage repolarization in FR-beta expressing IL-4 differentiated M2 phenotype mouse BMDM cells assessed as reprogramming to M1 phenotype by measuring upregulation of TLR7 expression at 10 nM incubated for 24 hrs by western blot analysis; type: functional, cell-based

Drug metabolism [11]	remaining at 360 h [14]	Structure (SMILES)	Activity [1]	Activity [2]	Activity [3]	Activity [4]	Activity [5]	Activity [6]	Activity [7]	Activity [8]	Activity [9]	Activity [10]	Activity [12]	Activity [13]	Activity [16]	Activity [24]	Activity [26]	other results
–	–	Nc1nc2[nH]c(CCCCc3ccc(C(=O)N[C@@H](CCC(=O)N[C@@H](CS)C(=O)O)C(=O)O)s3)cc2c(=O)[nH]1	Non-toxic	–	–	–	–	–	–	–	–	–	–	–	–	–	–	–
metabolite_detected	> 95%	CCCCc1nc2c(N)nc3ccccc3c2n1Cc1ccc(CNC(=O)OCCSSC[C@H](NC(=O)CC[C@H](NC(=O)c2ccc(CCCCc3cc4c(=O)[nH]c(N)nc4[nH]3)s2)C(=O)O)C(=O)O)cc1	Non-toxic	Non-toxic	Non-toxic	Non-toxic	Active	Non-toxic	Non-toxic	Non-toxic	Non-toxic	inactive	Non-toxic	Active	Active	–	–	remaining at 12 h, 5 µM [15]: 95%
metabolite_detected	> 95%	CCCCc1nc2c(N)nc3ccccc3c2n1Cc1ccc(CNC(=O)OCCSSC[C@H](NC(=O)CC[C@H](NC(=O)CNC(=O)Cc2cc3c(=O)[nH]c(N)nc3[nH]2)C(=O)O)C(=O)O)cc1	Non-toxic	Non-toxic	Non-toxic	Non-toxic	Active	Non-toxic	Non-toxic	Non-toxic	Non-toxic	inactive	Non-toxic	Active	Active	Active	Active	Activity [17]: Active; Activity [18]: Active; Activity [19]: Active; Activity [20]: Active; Activity [21]: Active; Activity [22]: inactive; Activity [23]: inactive; Activity [25]: Active; remaining at 12 h, 5 µM [15]: 95%; Activity [27]: Active; Activity [28]: Active; Activity [29]: Active
–	–	Nc1nc(O)c2nc(CNc3ccc(C(=O)N[C@@H](CCC(=O)N[C@@H](CS)C(=O)O)C(=O)O)cc3)cnc2n1	Non-toxic	–	–	–	–	–	–	–	–	–	–	–	–	–	–	–
metabolite_detected	< 95%	CCCCc1nc2c(N)nc3ccccc3c2n1Cc1ccc(CNC(=O)OCCSSC[C@H](NC(=O)CC[C@H](NC(=O)c2ccc(NCc3cnc4nc(N)[nH]c(=O)c4n3)cc2)C(=O)O)C(=O)O)cc1	Non-toxic	Non-toxic	Non-toxic	Non-toxic	Active	Non-toxic	Non-toxic	Non-toxic	Non-toxic	inactive	Non-toxic	Active	Active	Active; Less Effective Than Fgt-2,4 Observed	Active; Less Effective Than Fgt-2,4 Observed	Activity [17]: Active; Less Effective Than Fgt-2,4 Observed; Activity [20]: Active; Less Effective Than Fgt-2,4 Observed; Activity [21]: Active; Less Effective Than Fgt-2,4 Observed; Stability ([15]; 12 h, 5 µM): Unstable; Activity [27]: Active; Less Effective Than Fgt-2,4 Observed
–	–	Nc1nc2[nH]c(CCCCc3ccc(C(=O)N[C@@H](CCC(=O)N[C@@H](CS)C(=O)O)C(=O)O)cc3)cc2c(=O)[nH]1	Non-toxic	–	–	–	–	–	–	–	–	–	–	–	–	inactive	inactive	Activity [30]: inactive
–	–	Nc1nc2[nH]c(CC(=O)NCC(=O)N[C@@H](CCC(=O)N[C@@H](CS)C(=O)O)C(=O)O)cc2c(=O)[nH]1	Non-toxic	–	–	–	–	–	–	–	–	–	–	–	–	–	–	–
